# From patent US9663561B2, “Methods of treatment of cancer using SRC-modulating peptides” (The University of Toledo, priority 2006, dated 2017)
# Experiments:
# [1] = target: T1, Na+/K+-ATPase/Src complex (Sus scrofa, UniProt P05024); experiment: Src kinase activity (commercial kit) of Na+/K+-ATPase-bound Src; format: biochemical; conditions: 10 μM ouabain
# T1 construct: Na+/K+-ATPase was purified from pig kidney outer medulla using the Jorgensen method; tissue Upstate Biotechnology (Src only); host or cells: pig kidney outer medulla (Na+/K+-ATPase)
# Description: The Src kinase activity was assayed using a commercial kit (Haas et al., 2000). To determine how Na+/K+-ATPase affects Src kinase activity, the purified Src (4.5 U) was incubated with 5 μg of the purified Na+/K+-ATPase in the Src assay buffer for 30 min at room temperature. Afterward, both control Src or the Na+/K+-ATPase-bound Src were exposed to 10 μM ouabain and Src kinase activity was determined. In other experiments, the Src pY418 was measured by anti-pY418 antibody to indicate Src activation (Ma et al., 2000). To do so, the purified Src (4.5 U) was incubated with different amounts of the purified Na+/K+-ATPase or GST-Na+/K+ATPase constructs in phosphate-buffered saline (PBS) for 30 min at 37° C. Afterward, 2 mM ATP/Mg2+ was added. The reaction continued for 5 min at 37° C. and was stopped by addition of SDS sample buffer.
# Src and ERKs = conditions: cultured cells and animal models; cited from earlier work
# [2] = target: T2, Src-ECFP and EYFP-rat α1 in LLC-PK1 cells (Rattus norvegicus, UniProt P06685); experiment: FRET analysis in live cells; format: cell-based, pig; conditions: 100 μM ouabain, live LLC-PK1 cell
# T2 construct: expressed in transfected cells; host or cells: LLC-PK1 (pig kidney)
# Description: LLC-PK1 cells were cotransfected with Src-ECFP and EYFP-rat α1 and grown on a glass coverslip for 24 h. The coverslip was then mounted in a metal chamber and analyzed with a Leica DMIRE2 confocal microscope. The laser lines of 456 nm and 515 nm were used to illuminate fluorescence, and the emission intensities were recorded at 465-509 nm for Src-ECFP and 530-570 nm for EYFP-rat α1. The cell that expresses both Src-ECFP and EYFP-rat α1 was chosen and illuminated by only 456-nm laser. The cells express only Src-ECFP or EYFP-rat α1 were used for correction and determination of the laser intensity as well as the gain and offset settings. The emission intensities for both Src-ECFP and EYFP-rat α1 in selected membrane region was recorded at 465-509 nm (FECFP) and 530-570 nm (FEYEP), respectively. The FRET efficiency was reflected by the ratio of FEYFP/FECFP. After 50 s of recording, the same cell was exposed to ouabain and the recording was continued for indicated time.
# LLC-PK1 cells [3] = experiment: Recruitment of Src to the Na+/K+-ATPase signaling complex (co-immunoprecipitation); format: cell-based, pig; conditions: 1 μM ouabain 5 min, control cells
# Description: FIG. 9C Inhibition of Src blocks ouabain-induced recruitment of Src to the Na+/K+-ATPase signaling complex. LLC-PK1 cells were pretreated with 1 μM PP2 or PP3 for 15 min and then exposed to 1 μM ouabain for 5 min. Cell lysates were immunoprecipitated and analyzed. Values are mean±SE of at least four independent experiments. * p<0.05.
# (§1) Cells were lysed in RIPA buffer containing 1% Nonidet P40, 0.25% sodium deoxycholate, 150 mM NaCl, 1 mM EDTA, 1 mM phenylmethylsulfonyl fluoride, 1 mM sodium orthovanadate, 1 mM NaF, 10 μg/ml aprotinin, 10 μg/mlleupeptin, and 50 mM Tris-HCl (pH 7.4). Cell lysates were cleared by centrifugation at 16,000×g for […], and the supernatants (1 mg) were either immunoprecipitated with anti-α1 antibody or incubated with different GST-fusion proteins. The complexes were then pulled down by either protein G agarose or glutathione beads (Ma et al., 2000; Haas et al., 2002) and analyzed by Western blot.
# LLC-PK1 cells [4] = experiment: Tyrosine phosphorylation of Na+/K+-ATPase-associated proteins (anti-α1 immunoprecipitation); format: cell-based, pig; conditions: 1 μM ouabain, 5 min
# Description: FIG. 9A. LLC-PK1 cells were treated with 1 μM ouabain for 5 min, and cell lysates were immunoprecipitated with anti-α1 antibody and analyzed for tyrosine phosphorylated proteins.
# as §1
# [5] = target: T3, purified pig kidney Na+/K+-ATPase (Sus scrofa, UniProt P05024); experiment: ATPase activity of purified pig kidney Na+/K+-ATPase; format: biochemical; conditions: 10 μM ouabain
# T3 construct: Na+/K+-ATPase was purified from pig kidney outer medulla using the Jorgensen method; from tissue; host or cells: pig kidney outer medulla
# From the text: Src, without the first 85 amino acid residues, was purified from sf-9 cells as described (Ma et al., 2000) and used in the initial binding assays to ensure that Src binds to the Na+/K+-ATPase, but not the lipid composition in the purified Na+/K+-ATPase preparation. In subsequent experiments (e.g., phosphorylation and activity assays), purified recombinant full-length Src from Upstate Biotechnology was used. Na+/K+-ATPase was purified from pig kidney outer medulla using the Jorgensen method (Xie et al., 1996) and the preparations with specific activities between 1200 and 1400 μmol Pi/mg/h were used.
# GST fusion proteins or His-tagged proteins were expressed in Escherichia coli BL21 and purified on glutathione beads or nickel column.
# SYF and SYF+Src cells = experiment: Protein tyrosine phosphorylation in SYF and SYF+Src cells; format: cell-based, mouse; conditions: 100 μM ouabain 5 min
# Description: FIG. 9B. Both SYF and SYF+Src cells were treated with 100 μM ouabain for 5 min and analyzed as in A. Representative Western blots of three experiments are shown in both A and B.
# as §1
# Na+/K+-ATPase = Na+/K+-ATPase activity assay in cell lysates; format: biochemical, pig; conditions: 10 μM ouabain, PY-17 and P-11 cells
# Description: Na+/K+-ATPase enzymatic activity was determined Briefly, cells were collected from the cultures in Tris-EGTA buffer (pH 7.2) and briefly sonicated. The cell lysates were then treated with alamethicin at a concentration of 0.1 mg/mg of protein for 30 min at room temperature. ATPase activity was measured by the determination of the initial release of 32P from [,y-32P]ATP, and the reaction was carried out in a reaction mixture (1 ml) containing 100 mM NaCl, 25 mM KCl, 3 mM MgCl2, 1 mM EGTA, 2 mM ATP, 5 mM NaN3, and 50 mM Tris-HCl (pH 7.4). Na+/K+-ATPase activity was calculated as the difference between the activities measured in the absence of ouabain and in the presence of 1 mM ouabain. To determine the ouabain concentration curve, the alamethicin-treated cell lysates were preincubated with different concentrations of ouabain for 15 min before ATP was added to start the reaction.
structure (smiles),measurement,setting,value
C[C@@H]1O[C@@H](O[C@H]2C[C@@H](O)[C@]3(CO)[C@H]4[C@H](O)C[C@]5(C)[C@@H](C6=CC(=O)OC6)CC[C@]5(O)[C@@H]4CC[C@]3(O)C2)[C@H](O)[C@H](O)[C@H]1O [ouabain],Src kinase activity of Na+/K+-ATPase-bound Src,[1],restored the kinase activity
same,physiological concentrations able to activate Src and ERKs,Src and ERKs,0.1-1 nM
same,FRET between Src-ECFP and EYFP-rat α1,[2],reduction in FRET
same,Src coprecipitated with α1,LLC-PK1 cells [3],increased coprecipitated Src
same,tyrosine phosphorylation of Na+/K+-ATPase-associated proteins,LLC-PK1 cells [4],stimulated tyrosine phosphorylation
same,inhibition of the ATPase activity,[5],complete inhibition
same,effects of ouabain on protein tyrosine phosphorylation,SYF and SYF+Src cells; SYF cells,completely abolished
same,effects of ouabain on protein tyrosine phosphorylation,SYF and SYF+Src cells; SYF+Src cells,restored
same,inhibition of the Na+/K+-ATPase in cell lysates,Na+/K+-ATPase,complete inhibition
